Data taken from patent US20150111864A1, “CRYSTALLINE FORM OF A BETA-LACTAMASE INHIBITOR” (Cubist Pharmaceuticals, Inc., priority 2013, published 2015).
Entries after “also recorded” stand apart in the source; their conditions may differ. Where a name gives a salt, the structure may show the parent alone.

Experiments:
Format in all cases: physicochemical
[1] = Static stability / storage of solid forms, checked by XRPD
Procedure: The samples were analysed by XRPD and, where appropriate, by DSC, TGA, VT-XRPD and ^1H NMR. Static stability at 25° C./96% RH and 40° C./75% RH was also investigated.
This material was analysed by XRPD TGA, GVS, and mDSC. Static stability experiments were carried out under ambient conditions and also at 25° C./96% RH and 40° C./75% RH. Finally this material was used as input material for the polymorphism screen (see Table 6).

[2] = Gravimetric Vapour Sorption (GVS)
Procedure: Sorption isotherms were obtained using a SMS DVS Intrinsic moisture sorption analyser, controlled by DVS Intrinsic Control software v1.0.1.2 (or v 1.0.1.3). The sample temperature was maintained at 25° C. by the instrument controls. The humidity was controlled by mixing streams of dry and wet nitrogen, with a total flow rate of 200 ml/min The relative humidity was measured by a calibrated Rotronic probe (dynamic range of 1.0-100% RH), located near the sample. The weight change, (mass relaxation) of the sample as a function of % RH was constantly monitored by the microbalance (accuracy±0.005 mg). Typically 5-20 mg of sample was placed in a tared mesh stainless steel basket under ambient conditions. The sample was loaded and unloaded at 40% RH and 25° C. (typical room conditions). A moisture sorption isotherm was performed as outlined below (2 scans giving 1 complete cycle or 4 scans giving 2 complete cycles). The standard isotherm was performed at 25° C. at 10% RH intervals over a 0-90% RH range. Data analysis was undertaken in Microsoft Excel using DVS Analysis Suite v6.2 (or 6.1 or 6.0). Table 2 details the method parameters for SMS DVS intrinsic experiments.
The sample was recovered after completion of the isotherm and re-analysed by XRPD.

XRPD after ball milling = assay: XRPD after ball milling
Aqueous solubility = assay: Aqueous solubility
[3] = Static stability / storage of solid forms, checked by XRPD; remark: listed apart in the source
[4] = Drying of solid forms, form checked by XRPD; details: for Filtration and air drying for 30 min: air drying 30 min

Structure (SMILES): NCCCc1nnc([C@@H]2CC[C@@H]3CN2C(=O)N3OS(=O)(=O)O)o1 [Amorphous Solid, (2S,5R)-2-(5-(3-aminopropyl)-1,3,4-oxadiazol-2-yl)-7-oxo-1,6-diazabicyclo[3.2.1]octan-6-yl hydrogen sulfate]
- Static Stability - 25° C./96% RH: time to conversion to Form 5 ([1]; 25° C./96% RH): Conversion to Form 5 within 15 minutes
- Static Stability - 40° C./75% RH: time to conversion to Form 5 ([1]; 40° C./75% RH): Conversion to Form 5 within 15 minutes
- Static Stability - ambient ([1]; ambient conditions, XRPD): Form 5 peaks observed after 36 days (although
- GVS (water uptake, in words) ([2]; 25° C., resulting solid was Form 5 by XRPD): Rapid uptake of water from 40-60%

Structure (SMILES): NCCCc1nnc([C@@H]2CC[C@@H]3CN2C(=O)N3OS(=O)(=O)O)o1 [Form 5, (2S,5R)-2-(5-(3-aminopropyl)-1,3,4-oxadiazol-2-yl)-7-oxo-1,6-diazabicyclo[3.2.1]octan-6-yl hydrogen sulfate]
- XRPD after ball milling (20 min) (XRPD after ball milling): No change in form but loss
- Stability relative to the amorphous solid form and other crystalline forms [1]: more stable than other crystalline forms; also recorded: improved stability
- Change of XRPD pattern over time (FIG. 2) ([1]; 25° C. and 40% relative humidity, t=0 and t=2 days): little to no change
- Storage at 25° C./96% RH for 1 week ([1]; 25° C./96% RH, 1 week): No change in form or crystallinity
- Storage at 40° C./75% RH for 1 week ([1]; 40° C./75% RH, 1 week): No change in form or crystallinity
- Relative stability of crystalline forms at ambient conditions ([1]; ambient conditions (25° C. and 40% RH)): most stable crystalline form
- Aqueous solubility (24 hrs at 25°): solid form of residue (Aqueous solubility): Residue was Form 5
- Aqueous solubility (24 hrs at 25°) (Aqueous solubility; pH 4.85): 13.1 mg/ml (pH 4.85).
- Storage in vacuum oven at 25° C. ([3]; 25° C., after 5 days): No change in form or crystallinity
- Storage in vacuum oven at 50° C. ([3]; 50° C., after 24 h): Sample almost completely amorphous
- XRPD post GVS ([2]; after GVS isotherm): Form 5. No change in crystallinity
- GVS Mass change ([2]; from 0-90% RH, 25° C.): Mass change of 9.73% from 0-90% RH

Structure (SMILES): NCCCc1nnc([C@@H]2CC[C@@H]3CN2C(=O)N3OS(=O)(=O)O)o1 [Form 6, (2S,5R)-2-(5-(3-aminopropyl)-1,3,4-oxadiazol-2-yl)-7-oxo-1,6-diazabicyclo[3.2.1]octan-6-yl hydrogen sulfate]
- Storage at 25° C./96% RH for 24 h ([1]; 25° C./96% RH): Conversion to Form 5
- Storage at 40° C./75% RH for 24 h ([1]; 40° C./75% RH): Conversion to Form 5
- Filtration and air drying for 30 min [4]: No change in form

Structure (SMILES): NCCCc1nnc([C@@H]2CC[C@@H]3CN2C(=O)N3OS(=O)(=O)O)o1 [Form 7, (2S,5R)-2-(5-(3-aminopropyl)-1,3,4-oxadiazol-2-yl)-7-oxo-1,6-diazabicyclo[3.2.1]octan-6-yl hydrogen sulfate]
- Storage at 25° C./96% RH for 24 h ([1]; 25° C./96% RH): Conversion to Form 5
- Storage at 40° C./75% RH for 24 h ([1]; 40° C./75% RH): Conversion to Form 5
- Storage at ambient conditions for 24 h [1]: No change in form
- Filtration and air drying for 30 min [4]: No change in form

Structure (SMILES): NCCCc1nnc([C@@H]2CC[C@@H]3CN2C(=O)N3OS(=O)(=O)O)o1 [Form 9, (2S,5R)-2-(5-(3-aminopropyl)-1,3,4-oxadiazol-2-yl)-7-oxo-1,6-diazabicyclo[3.2.1]octan-6-yl hydrogen sulfate]
- Storage at 25° C./96% RH for 24 h ([1]; 25° C./96% RH): Conversion to Form 5
- Storage at 40° C./75% RH for 24 h ([1]; 40° C./75% RH): Conversion to Form 5
- Storage at ambient conditions for 24 h [1]: No change in form
- Drying in at 5 mmHg/25° C. overnight ([4]; 5 mmHg, 25° C., overnight): No change in form
